Data: patent publication US11033600B2, “Protease transition state inhibitor prodrugs” (priority 2016, dated 2021)
Like-named read-outs stand apart in the source and are kept apart here.

Assays:
[1] = target: norovirus 3CL protease (NV 3CLpro) (Norovirus, UniProt Q83883); test: FRET protease assay (3CL protease), enzyme inhibition; type: biochemical
Procedure: FRET protease assays. The FRET protease assay (3CL protease) was performed by preparing stock solutions of the substrate (Edans-DFHLQ/GP-Dabcyl, SEQ ID NO:1) and inhibitor in DMSO and diluting into assay buffer which was comprised of 20 mM HEPES buffer, pH 8, containing NaCl (200 mM), 0.4 mM EDTA, glycerol (60%), and 6 mM dithiothreitol (DTT). The protease was mixed with serial dilutions of each compound up to 100 μM or with DMSO in 25 μL of assay buffer and incubated at 37° C. for 30 min, followed by the addition of 25 μL of assay buffer containing substrate. Fluorescence readings were obtained using an excitation wavelength of 360 nm and an emission wavelength of 460 nm on a fluorescence microplate reader (FLx800; Biotec, Winoosk, Vt.) 1 h following the addition of substrate. Relative fluorescence units (RFU) were determined by subtracting background values (substrate-containing well without protease) from the raw fluorescence values. The dose-dependent FRET inhibition curves were fitted with a variable slope by using GraphPad Prism software (GraphPad, La Jolla, Calif.) in order to determine the IC50 values of the inhibitors.

[2] = system: NV in replicon harboring cells (HG23 cells); test: Cell-based assay: virus replication in NV replicon harboring cells (HG23 cells), qRT-PCR; parameters: species or system norovirus (NV)
Procedure: The effects of each inhibitor on virus replication were examined against NV in the NV replicon harboring cells (HG23 cells). Briefly, confluent and semi-confluent HG23 cells were incubated with medium containing DMSO (<0.1%) or each compound (up to 200 uM) for 48 h. After the incubation, total RNA was extracted and viral genome was quantitated with real-time quantitative RT-PCR (qRT-PCR). The EC50 values were determined by GraphPadPrism software.

[3] = Table 1, ester prodrugs, average of at least two determinations, read-out: IC50 (50% inhibitory concentration in the enzyme assay)
[4] = Table 1, ester prodrugs, HG23 cells, 48 h, read-out: EC50 (50% effective concentration in cell culture)

Sequence of norovirus 3CL protease (NV 3CLpro) (Q83883 1101-1281): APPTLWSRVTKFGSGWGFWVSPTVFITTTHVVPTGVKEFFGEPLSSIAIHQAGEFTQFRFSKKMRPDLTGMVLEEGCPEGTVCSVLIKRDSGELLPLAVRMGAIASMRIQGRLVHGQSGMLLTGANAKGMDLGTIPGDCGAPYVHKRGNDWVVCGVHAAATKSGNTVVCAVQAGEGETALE

Compound: CCC(=O)OC([C@H](C[C@@H]1CCNC1=O)NC(=O)[C@H](CC(C)C)NC(=O)OCc1ccccc1)S(=O)(=O)O (stereo partly drawn) [Compound 2, (5S,8S)-5-Isobutyl-3,6,11-trioxo-8-(((S)-2-oxopyrrolidin-3-yl)methyl)-1-phenyl-2,10-dioxa-4,7-diazatridecane-9-sulfonate]
- IC50 [1, 3]: 7500 nM
- EC50 [2, 4]: 0.7 µM

Compound: CC(C)C[C@H](NC(=O)OCc1ccccc1)C(=O)N[C@@H](C[C@@H]1CCNC1=O)C(OC(=O)C(C)C)S(=O)(=O)O (stereo partly drawn) [Compound 8, (5S,8S)-5-Isobutyl-12-methyl-3,6,11-trioxo-8-(((S)-2-oxopyrrolidin-3-yl)methyl)-1-phenyl-2,10-dioxa-4,7-diazatridecane-9-sulfonate]
- IC50 [1, 3]: 3500 nM
- EC50 [2, 4]: 0.3 µM

Compound: COC(=O)C(C)NC(=O)OC([C@H](C[C@@H]1CCNC1=O)NC(=O)[C@H](CC1CCCCC1)NC(=O)OCc1ccccc1)S(=O)(=O)O (stereo partly drawn) [Compound 23, (5 S,8S)-5-(Cyclohexylmethyl)-13-methyl-3,6,11,14-tetraoxo-8-(((S)-2-oxopyrrolidin-3-yl)methyl)-1-phenyl-2,10,15-trioxa-4,7,12-triazahexadecane-9-sulfonate]
- IC50 ([1]; Table 2, carbamate prodrugs, read-out: IC50): 10200 nM
- EC50 ([2]; Table 2, carbamate prodrugs, HG23 cells, 48 h, read-out: EC50): 0.2 µM

Compound: CC(=O)OC([C@H](C[C@@H]1CCNC1=O)NC(=O)[C@H](CC(C)C)NC(=O)OCc1ccccc1)S(=O)(=O)O (stereo partly drawn) [Compound 1, (5S,8S)-5-Isobutyl-3,6,11-trioxo-8-(((S)-2-oxopyrrolidin-3-yl)methyl)-1-phenyl-2,10-dioxa-4,7-diazadodecane-9-sulfonate]
- IC50 [1, 3]: 10500 nM
- EC50 [2, 4]: 0.6 µM

Compound: O=C(N[C@@H](CC1CCCCC1)C(=O)N[C@@H](C[C@@H]1CCNC1=O)C(OC(=O)C1CCCCC1)S(=O)(=O)O)OCc1ccccc1 (stereo partly drawn) [Compound 16, (5S,8S)-11-Cyclohexyl-5-(cyclohexylmethyl)-3,6,11-trioxo-8-(((S)-2-oxopyrrolidin-3-yl)methyl)-1-phenyl-2,10-dioxa-4,7-diazaundecane-9-sulfonate]
- IC50 [1, 3]: 600 nM
- EC50 [2, 4]: 0.06 µM

Compound: O=C(N[C@@H](CC1CCCCC1)C(=O)N[C@@H](C[C@@H]1CCNC1=O)C(OC(=O)C1CCCCC1)S(=O)(=O)O)OCc1cccc(Cl)c1 (stereo partly drawn) [Compound 14, (5 S,8S)-1-(3-Chlorophenyl)-11-cyclohexyl-5-(cyclohexylmethyl)-3,6,11-trioxo-8-(((S)-2-oxopyrrolidin-3-yl)methyl)-2,10-dioxa-4,7-diazaundecane-9-sulfonate]
- IC50 [1, 3]: 400 nM
- EC50 [2, 4]: 0.02 µM

Compound: CC(=O)OC([C@H](C[C@@H]1CCNC1=O)NC(=O)[C@H](CC1CCCCC1)NC(=O)OCc1ccccc1)S(=O)(=O)O (stereo partly drawn) [Compound 15, (5S,8S)-5-(Cyclohexylmethyl)-3,6,11-trioxo-8-(((S)-2-oxopyrrolidin-3-yl)methyl)-1-phenyl-2,10-dioxa-4,7-diazadodecane-9-sulfonate]
- IC50 [1, 3]: 7500 nM
- EC50 [2, 4]: 0.2 µM

Compound: CCCCCCCC(=O)OC([C@H](C[C@@H]1CCNC1=O)NC(=O)[C@H](CC(C)C)NC(=O)OCc1ccccc1)S(=O)(=O)O (stereo partly drawn) [Compound 6, (5S,8S)-5-Isobutyl-3,6,11-trioxo-8-(((S)-2-oxopyrrolidin-3-yl)methyl)-1-phenyl-2,10-dioxa-4,7-diazaoctadecane-9-sulfonate]
- IC50 [1, 3]: 3000 nM
- EC50 [2, 4]: 0.5 µM

Compound: CCCCCCCC(=O)OC([C@H](C[C@@H]1CCNC1=O)NC(=O)[C@H](CC1CCCCC1)NC(=O)OCc1cccc(Cl)c1)S(=O)(=O)O (stereo partly drawn) [Compound 12, (5 S, 8S)-1-(3-Chlorophenyl)-5-(cyclohexylmethyl)-3,6,11-trioxo-8-(((S)-2-oxopyrrolidin-3-yl)methyl)-2,10-dioxa-4,7-diazaoctadecane-9-sulfonate]
- IC50 [1, 3]: 900 nM
- EC50 [2, 4]: 0.03 µM

Compound: O=C[C@H](C[C@@H]1CCNC1=O)NC(=O)[C@H](CC1CCCCC1)NC(=O)OCc1cccc(Cl)c1 [Compound 25, reference compound]
- EC50 ([2]; Norovirus, HG23, in μM, read-out: EC50): 0.02 µM
